The values below come from PubChem BioAssay AID192 (DTP/NCI, 2004).

Structures are written as SMILES. Where “and” joins values, the source holds several entries; their conditions need not be identical. Equal values may be shown once. Inconclusive results and toxic doses are left out.

In the experiment the test system is BDF1 mice, B16 melanoma ip, median survival T/C. The experiment can be described thus: NCI In Vivo Anticancer Drug Screen. Data for tumor model B16 Melanoma (intraperitoneal) in B6D2F1 (BDF1) mice. As to conditions: endpoint: median survival time, higher = longer survival. In short, it runs like this:
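In this screen, activity was judged from survival or tumor size in treated versus vehicle-treated tumor-bearing mice, reported as T/C.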

Setting [1] is: dose: 6.25 mg/kg/injection, schedule: Q01DX009 (ip), vehicle: saline with Tween-80.
Setting [2] is: dose: 12.5 mg/kg/injection, schedule: Q01DX009 (ip), vehicle: saline with Tween-80.
Where [3] appears, read: dose: 25.0 mg/kg/injection, schedule: Q01DX009 (ip), vehicle: saline with Tween-80.
Where [4] appears, read: dose: 25.0 mg/kg/injection, schedule: Q04DX003 (ip), vehicle: saline with Tween-80.
Setting [5] is: dose: 100.0 mg/kg/injection, schedule: Q01DX009 (ip), vehicle: other.
Setting [6] is: dose: 200.0 mg/kg/injection, schedule: Q01DX009 (ip), vehicle: other.
The mark [7] stands for this setting: dose: 50.0 mg/kg/injection, schedule: Q01DX009 (ip), vehicle: saline with Tween-80.
Where [8] appears, read: dose: 100.0 mg/kg/injection, schedule: Q01DX009 (ip), vehicle: saline with Tween-80.
Setting [9] is: dose: 100.0 mg/kg/injection, schedule: Q04DX003 (ip), vehicle: saline with Tween-80.
Setting [10] is: dose: 200.0 mg/kg/injection, schedule: Q01DX009 (ip), vehicle: saline with Tween-80.

For `CC(C)(CN=Cc1ccccc1[O-])N=Cc1ccccc1[O-].[O]=[V]`, the T/C is 95 % of control under setting [1]; 113 % of control (dose: 6.25 mg/kg/injection, schedule: Q04DX003 (ip), vehicle: saline with Tween-80); 95 % of control under setting [2]; 91 % of control (dose: 12.5 mg/kg/injection, schedule: Q04DX003 (ip), vehicle: saline with Tween-80); 92 % of control under setting [3]; 104 % of control under setting [4].

As to `CC[C@@]1(O)C[C@H](OC2CC(N(C)C)C(O)C(C)O2)c2c(O)c3c(c(O)c2[C@H]1OC1CC(N(C)C)C(O)C(C)O1)C(=O)c1cccc(O)c1C3=O` (some centres undefined), the T/C is 100 % of control (dose: 31.2 micrograms/kg/injection, schedule: Q01DX009 (ip), vehicle: Klucel (hydroxypropylcellulose) (HPC)) and 89 % of control (dose: 62.5 micrograms/kg/injection, schedule: Q01DX009 (ip), vehicle: Klucel (hydroxypropylcellulose) (HPC)).

Regarding `COc1ccccc1OCC(O)COC(N)=O` (centres undefined), the T/C is, setting by setting: (dose: 25.0 mg/kg/injection, schedule: Q01DX009 (ip), vehicle: Klucel (hydroxypropylcellulose) (HPC)) 94 % of control; (dose: 50.0 mg/kg/injection, schedule: Q01DX009 (ip), vehicle: Klucel (hydroxypropylcellulose) (HPC)) 91 % of control; (dose: 100.0 mg/kg/injection, schedule: Q01DX009 (ip), vehicle: Klucel (hydroxypropylcellulose) (HPC)) 105 % of control; (dose: 200.0 mg/kg/injection, schedule: Q01DX009 (ip), vehicle: Klucel (hydroxypropylcellulose) (HPC)) 100 % of control; (dose: 400.0 mg/kg/injection, schedule: Q01DX009 (ip), vehicle: Klucel (hydroxypropylcellulose) (HPC)) 105 % of control.

In the case of `Nc1nc(N=Nc2ccc(O)cc2)cc(=O)[nH]1`, the T/C under setting [5] was 109 % of control; the T/C under setting [6] was 105 % of control; the T/C (dose: 400.0 mg/kg/injection, schedule: Q01DX009 (ip), vehicle: other) was 87 % of control.

In the case of `CCCC(=O)OCc1ccc(Cl)c(Cl)c1`, the T/C is, setting by setting: (dose: 16.5 mg/kg/injection, schedule: Q04DX003 (ip), vehicle: saline with Tween-80) 91 % of control; under setting [3], 93 % of control; under setting [4], 102 % of control; (dose: 37.5 mg/kg/injection, schedule: Q04DX003 (ip), vehicle: saline with Tween-80) 102 % of control; under setting [7], 97 % of control; (dose: 50.0 mg/kg/injection, schedule: Q04DX003 (ip), vehicle: saline with Tween-80) 118 % of control. For the same molecule, the T/C is, setting by setting: under setting [8], 100 % of control; under setting [9], 123 % of control.

As for `CCCC1CC[N-]CC1.CCCC1CC[N-]CC1.[Cl][Pt+2][Cl]`, the T/C is, setting by setting: under setting [1], 100 % of control; under setting [2], 110 % of control; under setting [3], 104 % of control.

On to `CC(C)C(=O)OCC1OC(n2cnc3c(=S)nc(N)[nH]c32)C(OC(=O)C(C)C)C1OC(=O)C(C)C` (centres undefined), for which the T/C (dose: 3.13 mg/kg/injection, schedule: Q01DX009 (ip), vehicle: saline with Tween-80) is 114 % of control; the T/C under setting [1] is 108 % of control; the T/C under setting [2] was 110 % of control.

For the molecule `COc1cc([N+](=O)[O-])ccc1NC(=O)Nc1ccc(Cl)cc1`, the T/C by setting is: under setting [7], 93 % of control; under setting [8], 91 % of control; under setting [10], 101 % of control.

In the case of `CC1(c2ccccc2)CCc2ccccc21` (centres undefined), the T/C by setting is: under setting [3], 103 % of control; under setting [7], 89 % of control; under setting [8], 90 % of control.

`Cc1ccc2c(Nc3ccc(NS(C)(=O)=O)cc3)c3ccccc3nc2c1C`: the T/C is, setting by setting: (dose: 5.0 mg/kg/injection, schedule: Q01DX009 (ip), vehicle: saline sonified) 90 % of control; (dose: 20.0 mg/kg/injection, schedule: Q01DX009 (ip), vehicle: other) 117 % of control; (dose: 20.0 mg/kg/injection, schedule: Q01DX009 (ip), vehicle: saline with Tween-80) 158 % of control; (dose: 40.0 mg/kg/injection, schedule: Q01DX009 (ip), vehicle: saline sonified) 185 % of control; (dose: 40.0 mg/kg/injection, schedule: Q01DX009 (ip), vehicle: saline with Tween-80) 163 % of control; (dose: 50.0 mg/kg/injection, schedule: Q01DX009 (ip), vehicle: saline) 100 % of control.

As to `COc1cc2ccc3c[n+]4ccccc4cc3c2cc1OC`, the T/C (dose: 25.0 mg/kg/injection, schedule: Q04DX009 (ip), vehicle: Klucel (hydroxypropylcellulose) (HPC)) is 97 % of control; the T/C (dose: 50.0 mg/kg/injection, schedule: Q04DX009 (ip), vehicle: Klucel (hydroxypropylcellulose) (HPC)) is 93 % of control; the T/C (dose: 100.0 mg/kg/injection, schedule: Q04DX009 (ip), vehicle: Klucel (hydroxypropylcellulose) (HPC)) was 89 % of control; the T/C (dose: 150.0 mg/kg/injection, schedule: Q04DX009 (ip), vehicle: Klucel (hydroxypropylcellulose) (HPC)) is 95 % of control.

In the case of `CC(C)CCC[C@@H](C)[C@H]1CC[C@H]2[C@@H]3CC=C4C[C@@H](O)CC[C@]4(C)[C@H]3CC[C@]12C`, the T/C reads like this: under setting [5], 98 % of control; under setting [6], 114 % of control.

Regarding `C(=N/NC1=NCCN1)/c1c2ccccc2c(/C=N\NC2=NCCN2)c2ccccc12`, the T/C (dose: 0.78 mg/kg/injection, schedule: Q01DX009 (ip), vehicle: saline) was 156 % of control; the T/C (dose: 1.56 mg/kg/injection, schedule: Q01DX009 (ip), vehicle: saline) is 181 % of control; the T/C (dose: 3.12 mg/kg/injection, schedule: Q01DX009 (ip), vehicle: saline) is 205 % of control; the T/C (dose: 6.25 mg/kg/injection, schedule: Q01DX009 (ip), vehicle: saline) is 225 % of control; the T/C (dose: 12.5 mg/kg/injection, schedule: Q01DX009 (ip), vehicle: saline) was 294 % of control.

As to `NC(=O)c1cn(C2OC(CO)C(O)C2O)c2ncnc(N)c12` (centres undefined), the T/C is 100 % of control (dose: 0.09 mg/kg/injection, schedule: Q01DX009 (ip), vehicle: saline); 93 % of control (dose: 0.12 mg/kg/injection, schedule: Q01DX009 (ip), vehicle: water); 97 % of control (dose: 0.13 mg/kg/injection, schedule: Q01DX009 (ip), vehicle: saline); 105 % of control (dose: 0.19 mg/kg/injection, schedule: Q01DX009 (ip), vehicle: saline); 102 % of control (dose: 0.25 mg/kg/injection, schedule: Q01DX009 (ip), vehicle: saline); 106 % of control (dose: 0.25 mg/kg/injection, schedule: Q01DX009 (ip), vehicle: water). Further, the T/C was 105 % of control (dose: 0.38 mg/kg/injection, schedule: Q01DX009 (ip), vehicle: saline); 102 % of control (dose: 0.5 mg/kg/injection, schedule: Q01DX009 (ip), vehicle: saline); 114 % of control (dose: 0.75 mg/kg/injection, schedule: Q01DX009 (ip), vehicle: saline).

In the case of `Cc1ccc(S(=O)(=O)N(CCCCN(S(=O)(=O)c2ccc(C)cc2)S(=O)(=O)c2ccc(C)cc2)S(=O)(=O)c2ccc(C)cc2)cc1`, the T/C (dose: 100.0 mg/kg/injection, schedule: Q04DX003 (ip), vehicle: Klucel (hydroxypropylcellulose) (HPC)) was 95 % of control and the T/C (dose: 400.0 mg/kg/injection, schedule: Q04DX003 (ip), vehicle: Klucel (hydroxypropylcellulose) (HPC)) was 112 % of control.

As for `CCOC(Cl)CCl` (centres undefined), the T/C under setting [2] was 97 % of control and the T/C under setting [3] was 102 % of control.

Take `CC(Br)C(=O)NC(CO)C(=O)O` (centres undefined): the T/C under setting [8] was 94 % of control; the T/C under setting [9] was 108 % of control; the T/C under setting [10] was 99 % of control; the T/C (dose: 200.0 mg/kg/injection, schedule: Q04DX003 (ip), vehicle: saline with Tween-80) is 113 % of control; the T/C (dose: 400.0 mg/kg/injection, schedule: Q01DX009 (ip), vehicle: saline with Tween-80) was 86 % of control; the T/C (dose: 400.0 mg/kg/injection, schedule: Q04DX003 (ip), vehicle: saline with Tween-80) was 108 % of control.

For `N=C(N)SCCCCCCCCCCSC(=N)N`, the T/C is 95 % of control under setting [1]; 88 % of control under setting [2]; 86 % of control and 88 % of control under setting [3].

With `CN(CCO)C1=C(N2CC2)C(=O)C(N(C)CCO)=C(N2CC2)C1=O`, the T/C was 111 % of control (dose: 100.0 micrograms/kg/injection, schedule: Q01DX009 (ip), vehicle: saline) and 118 % of control (dose: 200.0 micrograms/kg/injection, schedule: Q01DX009 (ip), vehicle: saline).

For the molecule `Cc1cc(Cc2cc(C)cc(C(C)(C)C)c2O)c(O)c(Cc2cc(C)cc(C(C)(C)C)c2O)c1`, the T/C runs as follows: (dose: 100.0 mg/kg/injection, schedule: Q04DX003 (ip), vehicle: gum acacia) 97 % of control; (dose: 200.0 mg/kg/injection, schedule: Q04DX003 (ip), vehicle: gum acacia) 100 % of control.
